Literature values, collected in patent US11033606B2, “Composition comprising aflibercept, folinic acid, 5-fluorouracil (5-FU) and irinotecan (FOLFIRI)” (SANOFI, priority 2011, dated 2021).

Legend:
[1] = tested on: non-small cell lung cancer (NSCLC); settings: aflibercept added to docetaxel vs docetaxel plus placebo, second-line NSCLC
[2] = tested on: previously treated patients with metastatic colorectal cancer; settings: pre-treated patients with MCRC

aflibercept: fusion protein: VEGFR1 D2 Ig domain fused to VEGFR2 D3 Ig domain, fused to IgG1 Fc domain (SEQ ID No 1)
Primary endpoint of improvement in overall survival [1]: did not meet the pre-specified criteria
Tolerability [2]: well tolerated
